The values below come from the OligoGym collection.

Values joined by “and” are separate entries in the source; they are usually repeats but may differ in a detail not shown here. Equal values may be shown once. After the bases stand the sugars from the 5' end (letter, count) and the backbone: PS all phosphorothioate, else s phosphorothioate and o phosphodiester by linkage. Methylation of C is not given here. e = 2'-O-(2-methoxyethyl) (MOE); d = 2'-deoxy (DNA)

The series addresses DGAT2. The settings on record: ASO.

For the sequence “GAACTTCTTCTGGACCCATC (sugars e5 d10 e5, PS)”, for the setting “HepG2, 0.12 µM”, the target mRNA inhibition worked out at 19%.
Still for that read-out and setting: to “CAAAGATATAGTTCCTGGTG (sugars e5 d10 e5, PS)” belongs 61%.
As for “CACTAATTCTGGGCTTCCAG (sugars e5 d10 e5, PS)”, the target mRNA inhibition is, setting by setting: (HepG2, 2.5 µM) 64%; (HepG2, 10 µM) 96%.
With “GAAGGCACCCAGGCCCATGA (sugars e5 d10 e5, PS)”, the target mRNA inhibition (HepG2, 0.12 µM) amounted to 38%.
“GTGGGAAAGGCACAGGCTTT (sugars e5 d10 e5, PS)” came in with a target mRNA inhibition (HepG2, 0.12 µM) of 53%.
Consider “CTGCGCGATTCACTGAGGAC (sugars e5 d10 e5, PS)”, for which the target mRNA inhibition was 78% (HepG2, 2.5 µM) and 71% (HepG2, 10 µM).
Sequence “GCTCAGAGACTCAGCCGCAC (sugars e3 d14 e3, PS)” registered a target mRNA inhibition (HepG2, 0.12 µM) of 69%.
As to “CCAATGCCTAGGTCACA (sugars e3 d10 e4, PS)”, the target mRNA inhibition worked out at 61% (HepG2, 2.5 µM) and 83% (HepG2, 10 µM).
As to “TCGCTAGAGTACAAGTTCTC (sugars e5 d10 e5, PS)”, the target mRNA inhibition was found to be 88% (HepG2, 2.5 µM) and 93% (HepG2, 10 µM).
Taken in the same sequence, the figures for “GGAGGAGTTCTCGAATATCC (sugars e5 d10 e5, PS)” were 84% and 74%.
With “CTGTGGCACTAAGCTAGGCA (sugars e5 d10 e5, PS)”, the target mRNA inhibition is, setting by setting: (HepG2, 2.5 µM) 64%; (HepG2, 10 µM) 82%.
Taken in the same sequence, the figures for “CAGCTGTGATGACTTCCCAG (sugars e5 d10 e5, PS)” were 49% and 81%.
“TAGCATTGCCACTCCCATTC (sugars e5 d10 e5, PS)” came in with a target mRNA inhibition (HepG2, 0.12 µM) of 71%.
“AAAAGGAGTTTGTGTTTCCC (sugars e5 d10 e5, PS)”: the target mRNA inhibition is 84% and 86% (HepG2, 2.5 µM); 92% and 95% (HepG2, 10 µM).
For “CCAGGTGTCGGAGGAGAAGA (sugars e5 d10 e5, PS)”, the target mRNA inhibition (HepG2, 0.12 µM) was 53%.
Sequence “CTGGAACTTCTTCTGGACCC (sugars e5 d10 e5, PS)” came in with a target mRNA inhibition (HepG2, 0.12 µM) of 25%.
As for “CTCAGAGACTCAGCCGCACC (sugars e5 d10 e5, PS)”, the target mRNA inhibition was 80% (HepG2, 0.12 µM); 30% (HepG2, 2.5 µM); 91% (HepG2, 10 µM); 54% (HepG2, 20 µM).
In the case of “GCCACCTGCTTTGGAACTAA (sugars e5 d10 e5, PS)”, the target mRNA inhibition (HepG2, 0.12 µM) was determined as 41%.
Still for that read-out and setting: the result for “AAGATTCATAACTATATCTA (sugars e5 d10 e5, PS)” reads 6%.
As for “GTCAGCAGGTTGTGTGTCTT (sugars e5 d10 e5, PS)”, the target mRNA inhibition runs as follows: (HepG2, 0.12 µM) 64% and 59%; (HepG2, 2.5 µM) 30%; (HepG2, 10 µM) 76%; (HepG2, 20 µM) 93%.
In turn, “AGGCATGCTTCCTCCCACTT (sugars e5 d10 e5, PS)” gave a target mRNA inhibition (HepG2, 2.5 µM) of 53% and a target mRNA inhibition (HepG2, 10 µM) of 85%.
In the case of “TCTCATTTCTTATCTTCAAT (sugars e5 d10 e5, PS)”, the target mRNA inhibition is, setting by setting: (HepG2, 2.5 µM) 60% and 72%; (HepG2, 10 µM) 88% and 93%.
Regarding “CCTAGGTACAAGTTTCTCCA (sugars e5 d10 e5, PS)”, the target mRNA inhibition was 65% (HepG2, 2.5 µM) and 87% (HepG2, 10 µM).
Sequence “CAGCTAATGATACAAGGTTG (sugars e5 d10 e5, PS)” came in with a target mRNA inhibition (HepG2, 0.12 µM) of 55%.
“CACCTGCTTGTACACTTCAT (sugars e5 d10 e5, PS)”: the target mRNA inhibition reads like this: (HepG2, 2.5 µM) 59%; (HepG2, 10 µM) 90%.
Consider “CACTTGATCTGGGACCCAAA (sugars e5 d10 e5, PS)”, for which the target mRNA inhibition reads like this: (HepG2, 2.5 µM) 41%; (HepG2, 10 µM) 92%.
As to “CACACAGCCCAGTTTCGGAC (sugars e5 d10 e5, PS)”, where the note is “HepG2, 0.12 µM”, the target mRNA inhibition turned out to be 24%.
As for “CCTCTCCTGTTTGATGGGTA (sugars e5 d10 e5, PS)”, the target mRNA inhibition reads like this: (HepG2, 2.5 µM) 78% and 85% and 87%; (HepG2, 10 µM) 91% and 78% and 88%.
Regarding “AGGTAAGGCCGTATGCCTGG (sugars e5 d10 e5, PS)”, the target mRNA inhibition (HepG2, 0.12 µM) is 72%.
The same measure, in the same setting: to “GCGGCAGAGCCAGGACTGAA (sugars e5 d10 e5, PS)” belongs 35%.
Turning to “GTCATACTTACTGTTCAGCA (sugars e5 d10 e5, PS)”, the target mRNA inhibition was 78% and 65% (HepG2, 2.5 µM); 94% and 91% (HepG2, 10 µM).
As for “TAACCCACAGACACCCATGA (sugars e5 d10 e5, PS)”, the target mRNA inhibition (HepG2, 0.12 µM) worked out at 14%.
As for “GTAAGCCTCGGTGTCCTCTC (sugars e5 d10 e5, PS)”, the target mRNA inhibition reads like this: (HepG2, 2.5 µM) 91%; (HepG2, 10 µM) 85%.
Turning to “TTAAGGGTTCATGGATCCCC (sugars e5 d10 e5, PS)”, the target mRNA inhibition was 63% and 75% and 79% (HepG2, 2.5 µM); 91% and 93% (HepG2, 10 µM).
With “GAGCTCAGAGACTCAGCCGC (sugars e2 d13 e5, PS)”, the target mRNA inhibition reads like this: (HepG2, 0.12 µM) 89%; (HepG2, 2.5 µM) 27%; (HepG2, 10 µM) 42%; (HepG2, 20 µM) 61%.
“AGTCACTGACTCACAACAGC (sugars e5 d10 e5, PS)”: the target mRNA inhibition by setting is: (HepG2, 2.5 µM) 45%; (HepG2, 10 µM) 83%.
The sequence “AAGGGTATTCTGCTCATAAA (sugars e5 d10 e5, PS)” yielded a target mRNA inhibition (HepG2, 2.5 µM) of 48% and a target mRNA inhibition (HepG2, 10 µM) of 88%.
For “CACTTGCTTGAGGTCAGGGT (sugars e5 d10 e5, PS)”, the target mRNA inhibition runs as follows: (HepG2, 2.5 µM) 81% and 75%; (HepG2, 10 µM) 81% and 74%.
Turning to “ATCACAGAATTATCAGCAGT (sugars e5 d10 e5, PS)”, the target mRNA inhibition (HepG2, 2.5 µM) was found to be 59% and the target mRNA inhibition (HepG2, 10 µM) is 92%.
Taken in the same sequence, the figures for “GGGCAAAAAGTGAATCATCT (sugars e5 d10 e5, PS)” were 39% and 72%.
In the case of “GCATTGCCACTCCCATTCTT (sugars e5 d10 e5, PS)”, under “HepG2, 20 µM”, the target mRNA inhibition is 94% and 91% and 95%.
With “GCAGGTTGTGTGTCTTCACC (sugars e2 d13 e5, PS)”, the target mRNA inhibition (HepG2, 0.12 µM) turned out to be 56%.
Same read-out and setting: the result for “CAGGTAAGGCCGTATGCCTG (sugars e3 d14 e3, PS)” reads 72%.
“CAGGACCCACTGGAGCACTG (sugars e2 d13 e5, PS)”: the target mRNA inhibition (HepG2, 0.12 µM) is 78%.
With “GAAATCTGAGTGCTGCTAAC (sugars e5 d10 e5, PS)”, the target mRNA inhibition was 71% (HepG2, 2.5 µM) and 91% (HepG2, 10 µM).
Regarding “AGCTCATGAGAAGCTTAGAA (sugars e5 d10 e5, PS)”, the target mRNA inhibition came out at 62% (HepG2, 2.5 µM) and 82% (HepG2, 10 µM).
Taken in the same sequence, the figures for “CTCACATGCCTGAGGGCAGC (sugars e5 d10 e5, PS)” were 65% and 87%.
Turning to “GTTTAGGCTATGGTCTGAGC (sugars e5 d10 e5, PS)”, the target mRNA inhibition is 85% and 75% (HepG2, 2.5 µM); 92% (HepG2, 10 µM).
“TCAGCAGGTTGTGTGTCTTC (sugars e2 d13 e5, PS)” gave a target mRNA inhibition (HepG2, 0.12 µM) of 57%.
Same read-out and setting: to “CGCGCAGGACCCCGGAGTAG (sugars e5 d10 e5, PS)” belongs 74%.
As for “GTGATGACTTCCCAGGG (sugars e3 d10 e4, PS)”, the target mRNA inhibition was 66% and 82% (HepG2, 2.5 µM); 67% and 84% (HepG2, 10 µM).
As to “TAGGCTTTAGAAATTCACCA (sugars e5 d10 e5, PS)”, the target mRNA inhibition was 71% and 72% and 76% (HepG2, 2.5 µM); 89% and 82% and 91% (HepG2, 10 µM).
With “AACTTCTTCTGGACCCATCG (sugars e5 d10 e5, PS)”, the target mRNA inhibition (HepG2, 0.12 µM) is 28%.
As to “GGGTTATTGCAACCACTAGG (sugars e5 d10 e5, PS)”, the target mRNA inhibition by setting is: (HepG2, 2.5 µM) 74%; (HepG2, 10 µM) 80%.
Regarding “GCACCATTTTCACAAGGAGA (sugars e5 d10 e5, PS)”, the target mRNA inhibition reads like this: (HepG2, 2.5 µM) 79% and 72%; (HepG2, 10 µM) 85% and 81%.
With “CCACTGGAGCACTGAGATGA (sugars e5 d10 e5, PS)”, the target mRNA inhibition (HepG2, 0.12 µM) was 71%.
The same measure, in the same setting: the result for “CAGGCAGCCTGAAGGACACT (sugars e5 d10 e5, PS)” reads 49%.
Take “TTGGATAGTCGATTTACCAG (sugars e5 d10 e5, PS)”: the target mRNA inhibition reads like this: (HepG2, 2.5 µM) 62%; (HepG2, 10 µM) 92%.
Regarding “CCTCTTAGAAGTAATGCTTC (sugars e5 d10 e5, PS)”, the target mRNA inhibition runs as follows: (HepG2, 2.5 µM) 83% and 78%; (HepG2, 10 µM) 92% and 90%.
In the case of “GCGCAGGACCCCGGAGTAGG (sugars e3 d14 e3, PS)”, the target mRNA inhibition (HepG2, 0.12 µM) amounted to 71%.
In turn, “TCTCCTGTTTGATGGGT (sugars e3 d10 e4, PS)” returned a target mRNA inhibition (HepG2, 2.5 µM) of 41% and a target mRNA inhibition (HepG2, 10 µM) of 63%.
Taken in the same sequence, the figures for “GAGTAGTCAAAGGTGGCTTC (sugars e5 d10 e5, PS)” were 66% and 78%.
On to “CAGCTGGATGGGAAAGTAGT (sugars e5 d10 e5, PS)”, for which, where the note is “HepG2, 0.12 µM”, the target mRNA inhibition was 21%.
Turning to “TCATACTTACTGTTCAGCAG (sugars e5 d10 e5, PS)”, the target mRNA inhibition was 74% and 65% (HepG2, 2.5 µM); 93% and 89% (HepG2, 10 µM).
Regarding “GTTGCAATGTTGCCATC (sugars e3 d10 e4, PS)”, the target mRNA inhibition was 69% and 75% (HepG2, 2.5 µM); 89% and 96% (HepG2, 10 µM).
“CAGGACCCACTGGAGCACTG (sugars e3 d14 e3, PS)”: the target mRNA inhibition (HepG2, 0.12 µM) came out at 71%.
Still for that read-out and setting: to “CTTCTTGCTCACTTCTGTGG (sugars e5 d10 e5, PS)” belongs 25%.
As to “TGCAGCCTACAAGAGCCTGT (sugars e5 d10 e5, PS)”, the target mRNA inhibition stood at 54% (HepG2, 2.5 µM) and 90% (HepG2, 10 µM).
In turn, “GGCTCCGGTCAGCCTCGGCC (sugars e5 d10 e5, PS)” returned a target mRNA inhibition (HepG2, 0.12 µM) of 0%.
On the same count and under the same terms, the result for “AGCCCTCCTCGAAGATCACC (sugars e5 d10 e5, PS)” reads 39%.
For the sequence “GTTTACTGCATAGCTGAGCA (sugars e5 d10 e5, PS)”, the target mRNA inhibition reads like this: (HepG2, 2.5 µM) 69% and 82%; (HepG2, 10 µM) 79% and 96%.
Consider “TGGAGCTCAGAGACTCAGCC (sugars e2 d13 e5, PS)”, for which the target mRNA inhibition (HepG2, 0.12 µM) was 82%.
